{
  "source": "patent US20240156083A1",
  "about": "“CRYOBIOPRINTING FOR TISSUE FABRICATION AND STORAGE” (THE BRIGHAM AND WOMEN'S HOSPITAL, INC., priority 2022, published 2024)",
  "key": {"C2C12 cells [1]": {"tested_on": "C2C12 cells", "experiment": "Live/dead cell viability after 72 h cryopreservation in GelMA with DMSO and saccharides", "assay_type": "cell-based, mouse", "conditions": "C2C12 in 5% (w/v) GelMA; for most effective saccharide concentration for cell viability increase: 72 h cryopreservation, normalized to control with same DMSO concentration", "procedure": "A series of cell viability experiments were conducted using different concentrations of DMSO and saccharides to find the optimized configuration of CPAs in GelMA. […] The cell-laden bioink was used to produce samples containing different concentrations of DMSO and saccharides at room temperature (RT). The cast samples were then directly transferred to −80° C. for 24 h, conventionally cryopreserved in liquid nitrogen for 72 h, crosslinked via UV exposure, and underwent live/dead assays. […] By using the fluorescence images, the cell viability ratios of C2C12 cells were determined. […] Cell viability of each group was normalized to the control group with the same DMSO concentration to choose the most functional saccharide and its optimum concentration (FIG. 3, B to D). […] Ninety-six groups of GelMA samples (four DMSO concentrations, four saccharide concentrations, and six types of saccharides) were studied to identify the optimal CPA configuration. C2C12 cells were encapsulated in the GelMA/CPAs precursor. A volume of 50 μL of the cell-laden precursor was directly cast on a freezing plate in aseptic conditions. […] On day 3, the samples were removed from cryogenic storage and directly crosslinked via UV exposure. The samples were washed in PBS to remove any excess CPAs in preparation for subsequent use. Cell viability was quantified within unthawed cell-encapsulated samples to identify the optimal combination of CPAs. Following the crosslinking and washing steps, the hydrogel samples were cultured for a definite period and then stained using calcein-AM and ethidium homodimer-1 (Thermo Fisher Scientific) per the provider's protocol. An inverted Eclipse-Ti fluorescence microscope (Nikon) was employed to image the live and dead cells in green and red channels, respectively. The ratio of live cells to the total captured cells in random regions of the samples was determined through processing the fluorescent images using ImageJ."}, "[2]": {"experiment": "Ice crystal-formation imaging, fractal dimension (FD) analysis", "assay_type": "physicochemical", "conditions": "GelMA bioink, 90% of field of view frozen, versus DMSO-free control", "from_the_text": "One critical factor that affects cell viability during cryopreservation is the formation of ice crystals (Cheng Y, et al., Small 15, 1904290). The spicular ice crystals can damage the cell membrane, resulting in lower cell viability. […] The addition of CPAs noticeably affected the shape of ice crystals. In the control sample (without DMSO), the ice crystals were more spicular and formed faster than the other study groups. Increasing the DMSO concentration led to the formation of fine ice crystals; however, no remarkable improvement in ice-crystallization was observed when the saccharide concentration was increased, as the saccharide merely prevents osmotic damage to the cells. The fractal dimension (FD) theory, in conjunction with an image processing method, was employed to quantitatively compare the smoothness and the growth rate of the ice crystals. The FD value quantifies the geometry's irregularities. In our analysis, ice crystals' boundaries were extracted from the brightfield images and digitized. The FD value for the resulting quasi-circle geometry was then calculated using equation (1) (Chen Y, Math. Probl. Eng 2020, 7528703).\n, where P and A stand for the perimeter and the area of the quasi-circle geometry, respectively. FD is an indicator of how the quasi-circle geometry deviates from a circle. […] When 90% of the field of view was frozen, the FD values were recorded and compared. […]"}, "[3]": {"experiment": "Splat ice recrystallization-inhibition assay", "assay_type": "physicochemical", "conditions": "GelMA, Tp −20° C., 30 min, increasing DMSO concentration", "procedure": "To further confirm the effect of CPAs on inhibiting ice-recrystallization, a modified splat assay was employed. […] Smaller crystal size is an indication of enhanced ice recrystallization-inhibition (Tomczak MM, et al., Biochem. Biophys. Res. Commun 311, 1041-1046).\nThe splat cooling assay was performed following the previously developed protocols (Georgiou PG, et al., J. Am. Chem. Soc 143, 7449-7461). Briefly, 10 μL of samples with different DMSO concentrations was added between two glass coverslips. The coverslips were placed on the freezing plate (Tp=−20° C.) for 30 min. Images were then obtained using an optical microscope (Nikon) and processed by ImageJ (National Institutes of Health) to determine the ice crystal size in each group."}, "C2C12 cells [4]": {"tested_on": "C2C12 cells", "experiment": "Live/Dead viability in vertically cryobioprinted GelMA constructs", "assay_type": "cell-based, mouse", "conditions": "7.5% GelMA", "from_the_text": "The C2C12 myoblast-laden cryobioprinted samples containing DMSO and melezitose were subjected to Live/Dead assays on Days 1, 3, and 7. The 7.5% GelMA bioinks containing different concentrations (5%, 10%, and 15%) of DMSO were initially used to gain understanding on its cryoprotectant effect. The optimum concentration of DMSO was found at 10% for maximizing cell viability in the absence of the saccharide. GelMA bioinks containing different concentrations (4%, 8%, and 12%) of melezitose in the absence of DMSO were separately used for optimizing the melezitose effect. […] Therefore, the GelMA bioink combined with 8% melezitose and 10% DMSO was determined as the optimum formulation for cell-laden vertical cryobioprinting, and used in the following cellular experiments. […]\nCell viability was assessed by staining with calcein-AM at 0.5 μL mL^−1 and ethidium homodimer-1 at 2 μL mL^−1 (Thermo Fisher Scientific). Cell viability imaging was done using an inverted Eclipse-Ti fluorescence microscope (Nikon). Cell viability was quantified by counting live and dead cells using the ImageJ software (National Institutes of Health). After loading the image, we would adjust the threshold to highlight all of the cells that need to be counted, and convert the image to a binary image. The number of live cells was then determined in the image. […]"}, "[5]": {"conditions": "cited from earlier work"}, "[6]": {"conditions": "previously reported (Tada N, et al.); cited from earlier work"}},
  "data": [
    {"smiles": "C[S+](C)[O-]", "note": "[DMSO, Dimethylsulfoxide]", "values": [
      {"measurement": "optimum concentration of DMSO", "setting": "C2C12 cells [1]; for the selected sugar types, versus DMSO-free group", "result": "10 % (v/v)"},
      {"measurement": "FD value of ice crystals", "setting": "[2]", "result": "significantly decreased"},
      {"measurement": "average size of the ice crystals", "setting": "[3]", "result": "significantly decreased"},
      {"measurement": "optimum concentration of DMSO for maximizing cell viability", "setting": "C2C12 cells [4]; absence of the saccharide", "result": 10, "unit": "%"}
    ]},
    {"smiles": "OC[C@H]1O[C@@H](O[C@H]2[C@H](O)[C@@H](O)C(O)O[C@@H]2CO)[C@H](O)[C@@H](O)[C@H]1O", "note": "(stereo partly drawn) [Lactose, D-lactose]", "values": [
      {"measurement": "most effective saccharide concentration for cell viability increase", "setting": "C2C12 cells [1]", "result": "4 % (w/v)"}
    ]},
    {"smiles": "OC[C@H]1O[C@@](CO)(O[C@H]2O[C@H](CO)[C@@H](O)[C@H](O)[C@H]2O)[C@@H](O[C@H]2O[C@H](CO)[C@@H](O)[C@H](O)[C@H]2O)[C@@H]1O", "note": "[Melezitose, D-(+)-melezitose hydrate]", "values": [
      {"measurement": "most effective saccharide concentration for cell viability increase", "setting": "C2C12 cells [1]", "result": "12 % (w/v)"},
      {"measurement": "melezitose concentration leading to highest cell viability", "setting": "C2C12 cells [4]; absence of DMSO", "result": 8, "unit": "%"},
      {"measurement": "Solubility at 20° C.", "setting": "[5]", "result": 781, "unit": "mg/mL"}
    ]},
    {"smiles": "OC[C@H]1O[C@H](OC[C@H]2O[C@H](O[C@]3(CO)O[C@H](CO)[C@@H](O)[C@@H]3O)[C@H](O)[C@@H](O)[C@@H]2O)[C@H](O)[C@@H](O)[C@H]1O", "note": "[Raffinose, D-(+) raffinose pentahydrate]", "values": [
      {"measurement": "most effective saccharide concentration for cell viability increase", "setting": "C2C12 cells [1]", "result": "4 % (w/v)"},
      {"measurement": "concentration effective as CPA", "setting": "[6]", "result": "10-18 % (w/v)"}
    ]}
  ]
}
